From BindingDB's records for PubMed 2078271 (Sorbonne University, 1990)

What follows are compounds tested against T1, 5-hydroxytryptamine receptor 1A (Homo sapiens, UniProt P08908).
T1 sequence (P08908 whole entry): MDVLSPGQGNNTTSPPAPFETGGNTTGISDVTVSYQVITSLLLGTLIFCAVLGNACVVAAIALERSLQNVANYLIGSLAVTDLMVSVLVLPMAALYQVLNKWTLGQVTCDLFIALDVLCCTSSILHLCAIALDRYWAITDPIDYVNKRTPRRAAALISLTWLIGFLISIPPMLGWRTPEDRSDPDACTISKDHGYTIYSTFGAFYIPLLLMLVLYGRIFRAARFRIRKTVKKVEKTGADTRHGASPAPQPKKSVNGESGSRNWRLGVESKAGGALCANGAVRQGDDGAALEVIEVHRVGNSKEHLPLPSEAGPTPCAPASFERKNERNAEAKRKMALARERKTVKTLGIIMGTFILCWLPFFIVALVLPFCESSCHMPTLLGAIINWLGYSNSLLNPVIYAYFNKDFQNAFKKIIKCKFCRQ
With `COc1ccccc1N1CCN(C[C@@H](C(=O)NC(C)(C)C)c2ccccc2)CC1` [WAY 100135] the Ki was 20 nM. With `COc1ccccc1N1CCN(CCCNc2c(C)c(=O)n(C)c(=O)n2C)CC1` [Urapidil-5-methyl] the Ki was 0.35 nM. `COc1c(O)c(O)cc2c1CC(N)CC2` (stereo not drawn) [5-OME-3-ADTN] showed a Ki of 1 nM. Compound `O=C(NCCN1CCN(c2cccc3c2OCC(CO)O3)CC1)c1ccc(F)cc1` (stereo not drawn) [FLESINOXAN] has a Ki of 3 nM. Compound `CC(C)(C)NCC(O)COc1ccccc1C1CCCC1` (single isomer, unassigned; (-)) [NSC_37464] has a Ki of 8 nM. In the case of `COc1ccccc1N1CCN(CCN(C(=O)c2ccc(I)cc2)c2ccccn2)CC1`, the Ki is reported as 0.32 nM. `CCCN(CCC)CCc1c[nH]c2ccc(C(N)=O)cc12` [NN-DIPROP-5-CT] was tested, and the Ki was 0.2 nM. Compound `CC(C)(C)NCC(O)COc1cccc2c1SCCC2` (single isomer, unassigned; (-)) [TERTATOLOL(-)] has a Ki of 10 nM. Compound `FC(F)(F)c1cccc(C2=CCN(CCc3ccc4ccccc4c3)CC2)c1` [CAS_90494-79-4] has a Ki of 2 nM. In the case of `Clc1cnn(CCCCN2CCN(c3ncccn3)CC2)c1` [CAS_132449-46-8], the Ki is reported as 50 nM. For `O=C1c2ccccc2S(=O)(=O)N1CCCCN1CCN(c2ncccn2)CC1` [1,1-Dioxo-2-[4-(4-pyrimidin-2-yl-piperazin-1-yl)-butyl]-1,2-dihydro-1lambda*6*-benzo[d]isothiazol-3-one], the Ki was 10 nM. For `COC(=O)c1cc2c(N3CCN(CCCCN4C(=O)c5ccccc5S4(=O)=O)CC3)cccc2[nH]1` [CAS_141533-35-9], the Ki was 0.7 nM. `CCCN(CCCCN1C(=O)CC2(CCCC2)CC1=O)C1COc2cccc(OC)c2C1` (stereo not drawn) [NSC_121851] showed a Ki of 0.2 nM.
